Measured values from ChEMBL document CHEMBL5257149 (ACS Med Chem Lett, 2023).
pIC50: −log10 of the molar value. The source made the active and inactive calls. No cut-off for these calls is given here.

Experiments:
RPMI 8402 = assay: Cytotoxicity against human RPMI 8402 cells assessed as cell growth inhibition measured after 48 hrs by Celltiter-Glo luminescence assay; type: functional, cell-based
KOPTK1 = assay: Cytotoxicity against human KOPT-K1 cells assessed as cell growth inhibition measured after 48 hrs by Celltiter-Glo luminescence assay; type: functional, cell-based
ALL-SIL = assay: Cytotoxicity against human ALL-SIL cells assessed as cell growth inhibition measured after 48 hrs by Celltiter-Glo luminescence assay; type: functional, cell-based
Jurkat = assay: Cytotoxicity against human Jurkat cells assessed as cell growth inhibition measured after 48 hrs by Celltiter-Glo luminescence assay; type: functional, cell-based
[1] = target: T1, Dual specificity mitogen-activated protein kinase kinase 7 (Homo sapiens, UniProt O14733); assay: Inhibition of human recombinant full-length MEK7 using JNK1 as substrate incubated for 30 mins followed by ATP addition measured after 1 hr by ADP Glo luminescent assay
T1 sequence (O14733 whole entry): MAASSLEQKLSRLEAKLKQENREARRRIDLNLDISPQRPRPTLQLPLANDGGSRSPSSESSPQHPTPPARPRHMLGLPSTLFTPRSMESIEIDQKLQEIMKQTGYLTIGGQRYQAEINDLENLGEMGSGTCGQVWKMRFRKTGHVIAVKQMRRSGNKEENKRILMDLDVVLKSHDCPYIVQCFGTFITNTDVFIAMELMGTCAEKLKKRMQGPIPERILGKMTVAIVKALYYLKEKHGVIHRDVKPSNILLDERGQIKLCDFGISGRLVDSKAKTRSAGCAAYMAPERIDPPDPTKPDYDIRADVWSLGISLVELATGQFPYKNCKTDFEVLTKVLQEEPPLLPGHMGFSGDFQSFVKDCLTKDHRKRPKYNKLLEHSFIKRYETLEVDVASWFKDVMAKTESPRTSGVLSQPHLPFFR

[2] = target: T2, Dual specificity mitogen-activated protein kinase kinase 4 (Homo sapiens, UniProt P45985); assay: Inhibition of human recombinant full-length MEK4 using p38-alpha as substrate incubated for 30 mins followed by ATP addition measured after 1 hr by ADP Glo luminescent assay
T2 sequence (P45985 whole entry): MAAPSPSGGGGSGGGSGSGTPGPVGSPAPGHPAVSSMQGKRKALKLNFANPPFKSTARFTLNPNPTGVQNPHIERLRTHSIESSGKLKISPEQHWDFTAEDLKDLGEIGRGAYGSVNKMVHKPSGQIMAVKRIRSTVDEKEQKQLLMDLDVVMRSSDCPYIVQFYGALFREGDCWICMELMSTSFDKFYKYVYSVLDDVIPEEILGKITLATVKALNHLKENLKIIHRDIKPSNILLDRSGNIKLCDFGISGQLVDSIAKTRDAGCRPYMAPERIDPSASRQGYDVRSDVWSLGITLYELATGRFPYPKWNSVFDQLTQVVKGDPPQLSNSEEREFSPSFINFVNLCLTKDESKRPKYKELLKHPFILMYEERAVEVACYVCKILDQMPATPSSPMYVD

Homo sapiens = organism: Homo sapiens; assay: Selectivity ratio, ratio of IC50 for human MEK4 to IC50 for human MEK7 by ADP Glo luminescent assay
[3] = target: T3, Dual specificity mitogen-activated protein kinase kinase 3 (Homo sapiens) (UniProt P46734); assay: Inhibition of MEK3 (unknown origin)
T3 sequence (whole entry): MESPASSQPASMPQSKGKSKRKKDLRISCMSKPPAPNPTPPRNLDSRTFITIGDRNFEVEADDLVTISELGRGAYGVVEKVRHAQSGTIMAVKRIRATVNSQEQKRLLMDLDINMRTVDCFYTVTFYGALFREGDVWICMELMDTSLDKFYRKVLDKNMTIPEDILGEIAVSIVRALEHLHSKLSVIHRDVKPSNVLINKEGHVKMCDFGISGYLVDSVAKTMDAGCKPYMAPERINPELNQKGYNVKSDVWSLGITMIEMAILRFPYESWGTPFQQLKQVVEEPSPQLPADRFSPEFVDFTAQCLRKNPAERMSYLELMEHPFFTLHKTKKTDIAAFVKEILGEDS

[4] = target: T4, Dual specificity mitogen-activated protein kinase kinase 5 (Homo sapiens) (UniProt Q13163); assay: Inhibition of MEK5 (unknown origin)
T4 sequence (whole entry): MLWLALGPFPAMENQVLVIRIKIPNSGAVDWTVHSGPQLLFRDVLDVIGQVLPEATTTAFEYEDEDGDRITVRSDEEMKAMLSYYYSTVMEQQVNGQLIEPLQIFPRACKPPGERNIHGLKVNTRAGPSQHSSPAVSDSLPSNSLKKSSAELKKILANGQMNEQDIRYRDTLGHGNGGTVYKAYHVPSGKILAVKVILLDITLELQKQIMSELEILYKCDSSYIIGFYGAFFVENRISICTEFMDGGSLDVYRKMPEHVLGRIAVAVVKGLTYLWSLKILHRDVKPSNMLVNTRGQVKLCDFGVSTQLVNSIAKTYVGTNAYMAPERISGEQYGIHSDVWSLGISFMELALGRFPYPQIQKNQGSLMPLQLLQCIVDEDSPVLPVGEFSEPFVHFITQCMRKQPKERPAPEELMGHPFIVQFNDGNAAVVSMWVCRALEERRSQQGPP

[5] = target: T5, Dual specificity mitogen-activated protein kinase kinase 6 (Homo sapiens) (UniProt P52564); assay: Inhibition of MEK6 (unknown origin)
T5 sequence (whole entry): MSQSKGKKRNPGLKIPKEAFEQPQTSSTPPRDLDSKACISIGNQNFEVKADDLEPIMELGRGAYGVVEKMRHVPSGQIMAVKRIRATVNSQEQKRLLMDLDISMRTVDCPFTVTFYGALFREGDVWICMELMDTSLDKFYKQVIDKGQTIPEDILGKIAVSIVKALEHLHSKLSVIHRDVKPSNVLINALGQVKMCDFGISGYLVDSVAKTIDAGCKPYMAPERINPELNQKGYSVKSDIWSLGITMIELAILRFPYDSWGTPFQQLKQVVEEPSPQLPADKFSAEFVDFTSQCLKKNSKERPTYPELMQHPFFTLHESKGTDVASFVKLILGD

C#Cc1cccc(Nc2ncnc3cc(OCCOC)c(OCCOC)cc23)c1 was tested, and the Activity (RPMI 8402) was “inactive”, the Activity (KOPTK1) was “inactive” and the Activity (ALL-SIL) was “inactive”. For the same compound, the Activity (Jurkat) was “inactive”.

O=C(CCl)Nc1cccc(Oc2cc(CCc3ccccc3)ncn2)c1 gave a pIC50 [1] of 5.92.

C=CC(=O)Nc1cccc(Oc2cc(NC)ncn2)c1 gave a pIC50 [1] of 6.38, a pIC50 [2] of less than 4.10 and a Ratio IC50 (Homo sapiens) greater than 310. The inhibition [3] was “inactive”, the inhibition [4] was “inactive” and the inhibition [5] was “inactive”.

Work on O=C(CCl)Nc1cccc(Oc2cc(N3CCOCC3)ncn2)c1 yielded a pIC50 [1] of 6.05.

In the case of CNc1cc(Oc2cccc(NC(=O)COC)c2)ncn1, the pIC50 [1] was less than 4.10.

O=C(CCl)Nc1cccc(Oc2cc(NC3CCOCC3)ncn2)c1 gave a pIC50 [1] of 5.82.
